# In patent publication US20260078122A1, “INDAZOLE COMPOUNDS AS PKMYT1 KINASE INHIBITORS” (Hoffmann-La Roche Inc., priority 2023, published 2026):
# Target: T1, recombinant human Myt1 (full length PKMYT1) (Homo sapiens, UniProt Q99640)
# T1 sequence (Q99640 1-499): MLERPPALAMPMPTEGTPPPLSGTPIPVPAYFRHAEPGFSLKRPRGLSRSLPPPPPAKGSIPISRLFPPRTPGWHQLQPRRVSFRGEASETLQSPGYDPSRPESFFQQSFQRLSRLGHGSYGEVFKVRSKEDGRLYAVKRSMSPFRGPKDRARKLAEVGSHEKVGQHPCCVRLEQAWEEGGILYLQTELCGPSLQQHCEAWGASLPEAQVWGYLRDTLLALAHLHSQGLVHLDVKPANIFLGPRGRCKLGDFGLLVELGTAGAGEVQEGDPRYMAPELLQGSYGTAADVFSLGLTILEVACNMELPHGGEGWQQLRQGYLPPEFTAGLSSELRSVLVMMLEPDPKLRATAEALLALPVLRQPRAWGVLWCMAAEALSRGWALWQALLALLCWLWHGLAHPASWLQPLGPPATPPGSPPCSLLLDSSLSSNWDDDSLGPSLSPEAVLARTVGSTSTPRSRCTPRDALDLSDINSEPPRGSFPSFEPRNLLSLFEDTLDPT
# Assay: ADP-Glo assay (Myt1 kinase activity)
row,SMILES,IC50 [nM]
1,"Cc1c([C@@H]2C[C@H]2C)cnc2c(-c3ccc(F)c4[nH]ncc34)c(N)c(=O)[nH]c12 (racemic) [Example 144, 3-Amino-4-(7-fluoro-1H-indazol-4-yl)-8-methyl-7-[rac-(1R,2R)-2-methylcyclopropyl]-1H-1,5-naphthyridin-2-one]",11.4
2,"Cc1cc2[nH]c(=O)c(N)c(-c3ccc(F)c4[nH]ncc34)c2nc1Cl [Example 3, 3-Amino-6-chloro-4-(7-fluoro-1H-indazol-4-yl)-7-methyl-1H-1,5-naphthyridin-2-one]",< 10
3,Nc1c(-c2ccc(F)c3[nH]ncc23)c2ncc(F)cc2[nH]c1=O [Example 4],48.1
4,"COc1cnc2c(-c3ccc(F)c4[nH]ncc34)c(N)c(=O)[nH]c2c1 [Example 6, 3-Amino-4-(7-fluoro-1H-indazol-4-yl)-7-methoxy-1H-1,5-naphthyridin-2-one]",22.6
5,"Cn1cncc1-c1cnc2c(-c3ccc(F)c4[nH]ncc34)c(N)c(=O)[nH]c2c1 [Example 8, 3-Amino-4-(7-fluoro-1H-indazol-4-yl)-7-(3-methylimidazol-4-yl)-1H-1,5-naphthyridin-2-one]",11.6
6,"Nc1c(-c2ccc(F)c3[nH]ncc23)c2ncc(-c3ccn[nH]3)cc2[nH]c1=O [Example 9, 3-Amino-4-(7-fluoro-1H-indazol-4-yl)-7-(1H-pyrazol-5-yl)-1H-1,5-naphthyridin-2-one]",16.1
7,"Nc1c(-c2ccc(F)c3[nH]ncc23)c2ncc(-c3ccns3)cc2[nH]c1=O [Example 10, 3-Amino-4-(7-fluoro-1H-indazol-4-yl)-7-isothiazol-5-yl-1H-1,5-naphthyridin-2-one]",42.9
8,Nc1c(-c2ccc(F)c3[nH]ncc23)c2ncc(-c3ccc(F)cn3)cc2[nH]c1=O [Example 14],44.6
9,"Nc1c(-c2ccc(F)c3[nH]ncc23)c2ncc(-c3nccs3)cc2[nH]c1=O [Example 16, 3-Amino-4-(7-fluoro-1H-indazol-4-yl)-7-thiazol-2-yl-1H-1,5-naphthyridin-2-one]",11.3
10,"Cc1cc2[nH]c(=O)c(N)c(-c3ccc(F)c4[nH]ncc34)c2nc1C1CC1 [Example 18, 3-Amino-6-cyclopropyl-4-(7-fluoro-1H-indazol-4-yl)-7-methyl-1H-1,5-naphthyridin-2-one]",10.4
11,"Nc1c(-c2ccc(F)c3[nH]ncc23)c2ncc(N3CCOCC3)cc2[nH]c1=O [Example 19, 3-Amino-4-(7-fluoro-1H-indazol-4-yl)-7-morpholino-1H-1,5-naphthyridin-2-one]",30.3
12,"CC(C)(O)c1cnc2c(-c3ccc(F)c4[nH]ncc34)c(N)c(=O)[nH]c2c1 [Example 20, 3-Amino-4-(7-fluoro-1H-indazol-4-yl)-7-(1-hydroxy-1-methyl-ethyl)-1H-1,5-naphthyridin-2-one]",24.2
13,"Cc1cc2[nH]c(=O)c(N)c(-c3ccc(F)c4[nH]ncc34)c2nc1Br [Example 21, 3-Amino-6-bromo-4-(7-fluoro-1H-indazol-4-yl)-7-methyl-1H-1,5-naphthyridin-2-one]",10.3
14,"Cc1cc2[nH]c(=O)c(N)c(-c3ccc(F)c4[nH]ncc34)c2nc1N1CCN(C)CC1 [Example 22, 3-Amino-4-(7-fluoro-1H-indazol-4-yl)-7-methyl-6-(4-methylpiperazin-1-yl)-1H-1,5-naphthyridin-2-one]",< 10
15,"Cc1cc2[nH]c(=O)c(N)c(-c3ccc(F)c4[nH]ncc34)c2nc1NC(C)C [Example 23, 3-Amino-4-(7-fluoro-1H-indazol-4-yl)-6-(isopropylamino)-7-methyl-1H-1,5-naphthyridin-2-one]",10.7
16,"Cc1cc2[nH]c(=O)c(N)c(-c3ccc(F)c4[nH]ncc34)c2nc1N1CCC(O)C1 (stereo not shown) [Example 24, 3-Amino-4-(7-fluoro-1H-indazol-4-yl)-6-(3-hydroxypyrrolidin-1-yl)-7-methyl-1H-1,5-naphthyridin-2-one]",15.6
17,"Cc1cc2[nH]c(=O)c(N)c(-c3ccc(F)c4[nH]ncc34)c2nc1N1CCOCC1 [Example 25, 3-Amino-4-(7-fluoro-1H-indazol-4-yl)-7-methyl-6-morpholino-1H-1,5-naphthyridin-2-one]",18.8
18,"Cc1cc2[nH]c(=O)c(N)c(-c3ccc(F)c4[nH]ncc34)c2nc1N1CC2(COC2)C1 [Example 26, 3-Amino-4-(7-fluoro-1H-indazol-4-yl)-7-methyl-6-(2-oxa-6-azaspiro[3.3]heptan-6-yl)-1H-1,5-naphthyridin-2-one]",< 10
19,"Cc1cc2[nH]c(=O)c(N)c(-c3ccc(F)c4[nH]ncc34)c2nc1N1CC2(CN(C)C2)C1 [Example 27, 3-Amino-4-(7-fluoro-1H-indazol-4-yl)-7-methyl-6-(6-methyl-2,6-diazaspiro[3.3]heptan-2-yl)-1H-1,5-naphthyridin-2-one]",21.2

row,SMILES,IC50 [nM]
1,"Cc1cc2[nH]c(=O)c(N)c(-c3ccc(F)c4[nH]ncc34)c2nc1N1CCN(C(C)C)CC1 [Example 28, 3-Amino-4-(7-fluoro-1H-indazol-4-yl)-6-(4-isopropylpiperazin-1-yl)-7-methyl-1H-1,5-naphthyridin-2-one]",29.1
2,"Cc1cc2[nH]c(=O)c(N)c(-c3ccc(F)c4[nH]ncc34)c2nc1N1CCN(C2CC2)CC1 [Example 29, 3-Amino-6-(4-cyclopropylpiperazin-1-yl)-4-(7-fluoro-1H-indazol-4-yl)-7-methyl-1H-1,5-naphthyridin-2-one]",12
3,"Cc1cc2[nH]c(=O)c(N)c(-c3ccc(F)c4[nH]ncc34)c2nc1N1CC2CC1CN2C (stereo not shown) [Example 30, 3-Amino-4-(7-fluoro-1H-indazol-4-yl)-7-methyl-6-(5-methyl-2,5-diazabicyclo[2.2.1]heptan-2-yl)-1H-1,5-naphthyridin-2-one]",15.3
4,"Cc1cc2[nH]c(=O)c(N)c(-c3ccc(F)c4[nH]ncc34)c2nc1N1CC2CCC1CN2C (stereo not shown) [Example 31, 3-Amino-4-(7-fluoro-1H-indazol-4-yl)-7-methyl-6-(5-methyl-2,5-diazabicyclo[2.2.2]octan-2-yl)-1H-1,5-naphthyridin-2-one]",21.3
5,"Nc1c(-c2cccc3[nH]ncc23)c2ncc(C3CC3)cc2[nH]c1=O [Example 34, 3-Amino-7-cyclopropyl-4-(1H-indazol-4-yl)-1H-1,5-naphthyridin-2-one]",19.3
6,"Nc1c(-c2cccc3[nH]ncc23)c2ncc(-c3nccs3)cc2[nH]c1=O [Example 35, 3-Amino-4-(1H-indazol-4-yl)-7-thiazol-2-yl-1H-1,5-naphthyridin-2-one]",25.6
7,"Nc1c(-c2cc(F)cc3[nH]ncc23)c2ncc(Cl)cc2[nH]c1=O [Example 36, 3-Amino-7-chloro-4-(6-fluoro-1H-indazol-4-yl)-1H-1,5-naphthyridin-2-one]",37.8
8,"Cc1cc2[nH]c(=O)c(N)c(-c3ccc(F)c4[nH]ncc34)c2nc1N1CCNCC1 [Example 44, 3-Amino-4-(7-fluoro-1H-indazol-4-yl)-7-methyl-6-piperazin-1-yl-1H-1,5-naphthyridin-2-one]",< 10
9,"Cc1cc2[nH]c(=O)c(N)c(-c3ccc(F)c4[nH]ncc34)c2nc1OC1CCC1 [Example 46, 3-Amino-6-(cyclobutoxy)-4-(7-fluoro-1H-indazol-4-yl)-7-methyl-1H-1,5-naphthyridin-2-one]",10.6
10,"Cc1cc2[nH]c(=O)c(N)c(-c3ccc(F)c4[nH]ncc34)c2nc1OCC1CC1 [Example 47, 3-Amino-6-(cyclopropylmethoxy)-4-(7-fluoro-1H-indazol-4-yl)-7-methyl-1H-1,5-naphthyridin-2-one]",< 10
11,"Cc1cc2[nH]c(=O)c(N)c(-c3ccc(F)c4[nH]ncc34)c2cc1C [Example 48, 3-Amino-4-(7-fluoro-1H-indazol-4-yl)-6,7-dimethyl-1H-quinolin-2-one]",27.1
12,"Cc1c(Cl)nc2c(-c3ccc(F)c4[nH]ncc34)c(N)c(=O)[nH]c2c1C [Example 49, 3-Amino-6-chloro-4-(7-fluoro-1H-indazol-4-yl)-7,8-dimethyl-1H-1,5-naphthyridin-2-one]",< 10
13,"Nc1c(-c2ccc(F)c3[nH]ncc23)c2nccc(Cl)c2[nH]c1=O [Example 50, 3-Amino-8-chloro-4-(7-fluoro-1H-indazol-4-yl)-1H-1,5-naphthyridin-2-one]",< 10
14,"COc1c(C)cnc2c(-c3ccc(F)c4[nH]ncc34)c(N)c(=O)[nH]c12 [Example 51, 3-Amino-4-(7-fluoro-1H-indazol-4-yl)-8-methoxy-7-methyl-1H-1,5-naphthyridin-2-one]",17.9
15,"Cc1nc2c(-c3ccc(F)c4[nH]ncc34)c(N)c(=O)[nH]c2cc1Cl [Example 52, 3-Amino-7-chloro-4-(7-fluoro-1H-indazol-4-yl)-6-methyl-1H-1,5-naphthyridin-2-one]",< 10
16,"Cc1cnc2c(-c3ccc(F)c4[nH]ncc34)c(N)c(=O)[nH]c2c1Cl [Example 53, 3-Amino-8-chloro-4-(7-fluoro-1H-indazol-4-yl)-7-methyl-1H-1,5-naphthyridin-2-one]",10.7
17,"Nc1c(-c2ccc(F)c3[nH]ncc23)c2nc(C3CC3)c(Cl)cc2[nH]c1=O [Example 55, 3-Amino-7-chloro-6-cyclopropyl-4-(7-fluoro-1H-indazol-4-yl)-1H-1,5-naphthyridin-2-one]",12.4
18,"Cc1nc2c(-c3ccc(F)c4[nH]ncc34)c(N)c(=O)[nH]c2c(C)c1Cl [Example 56, 3-Amino-7-chloro-4-(7-fluoro-1H-indazol-4-yl)-6,8-dimethyl-1H-1,5-naphthyridin-2-one]",< 10
